Data taken from patent US7189720B2 (H. Lundbeck A/S, priority 1999, dated 2007).
Like-named read-outs stand apart in the source and are kept apart here.

Experiments:
[1] = target: T1, human Y2 receptor (Homo sapiens, UniProt P49146); experiment: Radioligand binding to membranes, cloned human Y2 receptor
T1 sequence (P49146 1-381): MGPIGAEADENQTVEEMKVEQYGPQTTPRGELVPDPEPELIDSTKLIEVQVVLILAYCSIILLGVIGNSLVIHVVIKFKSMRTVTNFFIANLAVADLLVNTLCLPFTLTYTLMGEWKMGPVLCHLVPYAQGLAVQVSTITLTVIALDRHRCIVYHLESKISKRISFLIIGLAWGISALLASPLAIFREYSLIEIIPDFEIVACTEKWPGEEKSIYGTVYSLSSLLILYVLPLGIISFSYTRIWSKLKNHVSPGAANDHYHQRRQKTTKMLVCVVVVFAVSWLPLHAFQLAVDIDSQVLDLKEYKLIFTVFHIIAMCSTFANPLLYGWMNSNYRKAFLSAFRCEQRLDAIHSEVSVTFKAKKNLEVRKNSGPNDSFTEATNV
Method: (§1) Binding of the compounds of the present invention to human Y1, Y2, Y4, and Y5 receptors was evaluated using stably transfected 293 or LM(tk-) cells as described above.
(§2) Membranes were harvested from COS-7 cells 48 hours after transient transfection. Adherent cells were washed twice in ice-cold phosphate buffered saline (138 mM NaCl, 8.1 mM Na2HPO4, 2.5 mM KCl, 1.2 mM KH2PO4, 0.9 mM CaCl2, 0.5 mM MgCl2, pH 7.4) and lysed by sonication in ice-cold sonication buffer (20 mM Tris-HCl, 5 mM EDTA, pH 7.7). Large particles and debris were cleared by low speed centrifugation (200×g, 5 min, 4° C.). Membranes were collected from the supernatant fraction by centrifugation (32,000×g, 18 min, 4° C.), washed with ice-cold hypotonic buffer, and collected again by centrifugation (32,000×g, 18 min, 4° C.). The final membrane pellet was resuspended by sonication into a small volume of ice-cold binding buffer (˜1 ml for every 5 plates: 10 mM NaCl, 20 mM HEPES, 0.22 mM KH2PO4, 1.26 mM CaCl2, 0.81 mM MgSO4, pH 7.4). Protein concentration was measured by the Bradford method (Bradford, 1976) using Bio-Rad Reagent, with bovine serum albumin as a standard. Membranes were held on ice for up to one hour and used fresh, or flash-frozen and stored in liquid nitrogen.
(§3) Membranes were prepared similarly from 293, LM(tk-), and NIH-3T3 cells.
(§4) Membrane suspensions were diluted in binding buffer supplemented with 0.1% bovine serum albumin to yield an optimal membrane protein concentration so that ^125I-PYY (or alternative radioligand such as ^125I-NPY, ^125I-NYY3-36, or ^125I-[Leu^31Pro^34]PYY) bound by membranes in the assay was less than 10% of ^125I-PYY (or alternative radioligand) delivered to the sample (100,000 dpm/sample=0.08 nM for competition binding assays). ^125I-PYY (or alternative radioligand) and peptide competitors were also diluted to desired concentrations in supplemented binding buffer. Individual samples were then prepared in 96-well polypropylene microtiter plates by mixing ^125I-PYY (25 μL) (or alternative radioligand), competing peptides or supplemented binding buffer (25 μL), and finally, membrane suspensions (200 μL). Samples were incubated in a 30° C. water bath with constant shaking for 120 min. Incubations were terminated by filtration over Whatman GF/C filters (pre-coated with 1% polyethyleneimine and air-dried before use), followed by washing with 5 mL of ice-cold binding buffer. Filter-trapped membranes were impregnated with MeltiLex solid scintillant (Wallac, Turku, Finland) and counted for ^125I in a Wallac Beta-Plate Reader. Alternatively, incubations were carried out in GF/C filter plates (pre-coated with 1% polyethyleneimine and air-dried before use), followed by vacuum filtration and three washes of 300 μL of ice-cold binding buffer. 50 μL of UltimaGold (Packard) scintillant were added and counted for ^125I, in a Wallac MicroBeta Trilux. Non-specific binding was defined by 300 nM human NPY for all receptors except the Y4 subtypes; 100 nM human PP was used for the human Y4 and 100 nM rat PP for the rat Y4.

[2] = target: T2, human Y4 receptor (Homo sapiens, UniProt P50391); experiment: Radioligand binding to membranes, cloned human Y4 receptor; conditions: Table 5; hNPY-4 (one cell for Y1, Y2, Y4); read-out: Ki, nM hNPY-1,2,4
T2 construct: expressed in transfected cells; host or cells: mouse fibroblast LM(tk-) cells, e.g. L-hY4-3 (ATCC CRL-11779)
Method: as §1, §2, §3, §4

[3] = target: T3, human Y1 receptor (Homo sapiens, UniProt P25929); experiment: Radioligand binding to membranes, cloned human Y1 receptor; conditions: Table 5; hNPY-1 (one cell for Y1, Y2, Y4); read-out: Ki, nM hNPY-1,2,4
T3 construct: expressed in transfected cells; host or cells: human embryonic kidney 293 cells, e.g. 293-hY1-5 (ATCC CRL-12121)
T3 sequence (P25929 1-384): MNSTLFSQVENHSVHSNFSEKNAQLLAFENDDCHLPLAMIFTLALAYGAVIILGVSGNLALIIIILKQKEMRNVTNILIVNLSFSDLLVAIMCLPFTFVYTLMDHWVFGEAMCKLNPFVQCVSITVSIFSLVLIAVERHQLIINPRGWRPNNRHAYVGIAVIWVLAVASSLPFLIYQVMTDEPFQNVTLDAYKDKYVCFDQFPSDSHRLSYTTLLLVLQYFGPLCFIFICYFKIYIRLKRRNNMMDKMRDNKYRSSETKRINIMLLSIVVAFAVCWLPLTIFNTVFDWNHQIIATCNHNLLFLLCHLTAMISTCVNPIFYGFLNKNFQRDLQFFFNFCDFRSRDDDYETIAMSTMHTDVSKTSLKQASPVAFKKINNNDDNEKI
Method: as §1, §2, §3, §4

[4] = target: T4, human Y5 receptor (Homo sapiens, UniProt Q15761); experiment: Radioligand binding to membranes, cloned human Y5 receptor; conditions: read-out: Ki, nM hNPY-5
T4 construct: expressed in transfected cells; host or cells: mouse fibroblast LM(tk-) cells, e.g. L-hY5-7 (ATCC CRL-11995)
T4 sequence (Q15761 1-445): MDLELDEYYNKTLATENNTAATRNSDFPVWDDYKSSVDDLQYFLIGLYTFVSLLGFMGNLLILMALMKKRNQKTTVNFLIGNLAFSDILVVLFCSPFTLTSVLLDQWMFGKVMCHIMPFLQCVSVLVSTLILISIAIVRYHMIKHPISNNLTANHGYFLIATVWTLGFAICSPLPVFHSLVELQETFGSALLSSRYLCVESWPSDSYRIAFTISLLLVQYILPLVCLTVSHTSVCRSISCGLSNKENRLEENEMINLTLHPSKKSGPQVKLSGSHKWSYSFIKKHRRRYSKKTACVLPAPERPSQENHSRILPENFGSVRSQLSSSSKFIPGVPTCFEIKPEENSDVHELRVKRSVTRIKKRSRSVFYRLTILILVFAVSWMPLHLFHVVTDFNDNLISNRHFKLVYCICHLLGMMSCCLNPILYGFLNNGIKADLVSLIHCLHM

T2 sequence (P50391 whole entry): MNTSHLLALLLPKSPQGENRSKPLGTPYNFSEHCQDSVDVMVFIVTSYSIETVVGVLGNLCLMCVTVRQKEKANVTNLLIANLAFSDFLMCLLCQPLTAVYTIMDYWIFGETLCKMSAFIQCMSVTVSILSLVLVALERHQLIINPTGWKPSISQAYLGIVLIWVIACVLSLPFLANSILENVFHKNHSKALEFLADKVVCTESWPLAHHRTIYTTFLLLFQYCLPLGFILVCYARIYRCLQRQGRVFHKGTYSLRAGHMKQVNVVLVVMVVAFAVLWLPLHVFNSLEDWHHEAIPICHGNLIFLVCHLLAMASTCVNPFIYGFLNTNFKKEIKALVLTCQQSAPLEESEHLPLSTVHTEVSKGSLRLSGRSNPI

| SMILES | Ki ([4]; Table 6) | other results |
| --- | --- | --- |
| CCN(CC)S(=O)(=O)NCCCCCNc1nc(-c2ccccn2)cs1 [Example 59, 2-(5-Diethylaminosulfonylamino)pentylamino-4-(2-pyridyl)-thiazole hydrogen chloride] |  | Ki [1]: > 10000 nM; Ki [2]: > 10000 nM; Ki [3]: > 10000 nM |
| O=S(=O)(NCCCCCNc1nc(-c2cccnc2)cs1)c1ccccc1F [Example 70, 2-(5-(2-Fluorophenyl)sulfonylamino)pentylamino-4-(3-pyridyl)thiazole hydrogen chloride] |  | Ki ([4]; Table 5): 21 nM; Ki [1]: > 10000 nM; Ki [2]: > 10000 nM; Ki [3]: > 10000 nM |
| Cc1noc(C)c1S(=O)(=O)NCCCCCNc1nc(-c2cccnc2)cs1 [Example 71, 2-(5-(3,5-Dimethylisoxazol-4-yl)sulfonylamino)pentylamino-4-(3-pyridyl)thiazole hydrogen chloride] |  | Ki ([4]; Table 5): 37 nM; Ki [1]: > 10000 nM; Ki [2]: > 10000 nM; Ki [3]: > 10000 nM |
| COc1ccc(C)cc1S(=O)(=O)NCCCCCNc1nc(-c2cccnc2)cs1 [Example 72, 2-(5-(2-Methoxy-5-methyl)phenylsulfonylamino)pentylamino-4-(3-pyridyl)thiazole hydrogen chloride] |  | Ki ([4]; Table 5): 50 nM; Ki [1]: > 10000 nM; Ki [2]: > 10000 nM; Ki [3]: > 10000 nM |
| CN(C)C(=O)NCCCCCNc1nc2c(s1)CCSc1ccccc1-2 [Example 139, N′-[5-(4,5-Dihydrobenzo[2,3]thiepino[4,5-d][1,3]thiazol-2-ylamino)pentyl]-N,N-dimethylurea] | 122 nM |  |
| O=C(NCCCCNc1nc2c(s1)CCSc1ccccc1-2)c1cccc2ccccc12 [Example 140, N1-[4-(4,5-Dihydrobenzo[2,3]thiepino[4,5-d][1,3]thiazol-2-ylamino)butyl]-1-naphthamide] | 123 nM |  |
| O=C(NCCCCCNc1nc2c(s1)CCSc1ccccc1-2)c1cccs1 [Example 141, N2-[5-(4,5-Dihydrobenzo[2,3]thiepino[4,5-d][1,3]thiazol-2-ylamino)pentyl]-2-thiophenecarboxamide] | 84 nM |  |
| O=C(NCCCCCNc1nc2c(s1)CCSc1ccccc1-2)c1ccc2ccccc2c1 [Example 142, N2-[5-(4,5-Dihydrobenzo[2,3]thiepino[4,5-d][1,3]thiazol-2-ylamino)pentyl]-2-naphthamide] | 100 nM |  |
| CCCS(=O)(=O)NCCCCCCNc1nc2c(s1)CCSc1ccccc1-2 [Example 143, N1-[6-(4,5-Dihydrobenzo[2,3]thiepino[4,5-d][1,3]thiazol-2-ylamino)hexyl]-1-propanesulfonamide] | 3.6 nM |  |
| O=S(=O)(NCCCCCCNc1nc2c(s1)CCSc1ccccc1-2)c1cccc(C(F)(F)F)c1 [Example 144, N1-[6-(4,5-dihydrobenzo[2,3]thiepino[4,5-d][1,3]thiazol-2-ylamino)hexyl]-3-(trifluoromethyl)-1-benzenesulfonamide] | 22.4 nM |  |
| O=S(=O)(NCCCCCCNc1nc2c(s1)CCSc1ccccc1-2)c1ccc(F)cc1F [Example 145, N1-[6-(4,5-Dihydrobenzo[2,3]thiepino[4,5-d][1,3]thiazol-2-ylamino)hexyl]-2,4-difluoro-1-benzenesulfonamide] | 4.1 nM |  |
| O=S(=O)(NCCCCCCNc1nc2c(s1)CCSc1ccccc1-2)c1c(Cl)cccc1Cl [Example 146, N1-[6-(4,5-Dihydrobenzo[2,3]thiepino[4,5-d][1,3]thiazol-2-ylamino)hexyl]-2,6-dichloro-1-benzenesulfonamide] | 25 nM |  |
| COc1cccc(Br)c1S(=O)(=O)NCCCCCCNc1nc2c(s1)CCSc1ccccc1-2 [Example 147, N1-[6-(4,5-Dihydrobenzo[2,3]thiepino[4,5-d][1,3]thiazol-2-ylamino)hexyl]-2-bromo-6-methoxy-1-benzenesulfonamide] | 7.9 nM |  |
| O=S(=O)(Cc1ccccc1)NCCCCCCNc1nc2c(s1)CCSc1ccccc1-2 [Example 148, N-[6-(4,5-Dihydrobenzo[2,3]thiepino[4,5-d][1,3]thiazol-2-ylamino)hexyl]phenylmethane-sulfonamide] | 10.5 nM |  |

The next lines start with results.

| Ki ([4]; Table 6) | SMILES | other results |
| --- | --- | --- |
| 4 nM | Cc1cccc(F)c1S(=O)(=O)NCCCCCCNc1nc2c(s1)CCSc1ccccc1-2 [Example 149, N1-[6-(4,5-Dihydrobenzo[2,3]thiepino[4,5-d][1,3]thiazol-2-ylamino)hexyl]-2-fluoro-6-methyl-1-benzenesulfonamide] |  |
| 21 nM | O=S(=O)(NC[C@H]1CC[C@H](Nc2nc3c(s2)CCSc2ccccc2-3)CC1)c1cccc(C(F)(F)F)c1 [Example 150, N1-{[4-(4,5-Dihydrobenzo[2,3]thiepino[4,5-d][1,3]thiazol-2-ylamino)cyclohexyl]methyl}-3-(trifluoromethyl)-1-benzenesulfonamide] |  |
| 7.9 nM | O=S(=O)(NC[C@H]1CC[C@H](Nc2nc3c(s2)CCSc2ccccc2-3)CC1)c1ccc(F)cc1F [Example 151, N1-{[4-(4,5-Dihydrobenzo[2,3]thiepino[4,5-d][1,3]thiazol-2-ylamino)cyclohexyl]methyl}-2,4-difluoro-1-benzenesulfonamide] |  |
| 17.4 nM | O=S(=O)(NC[C@H]1CC[C@H](Nc2nc3c(s2)CCSc2ccccc2-3)CC1)c1c(Cl)cccc1Cl [Example 152, N1-{[4-(4,5-Dihydrobenzo[2,3]thiepino[4,5-d][1,3]thiazol-2-ylamino)cyclohexyl]methyl}-2,6-dichloro-1-benzenesulfonamide] |  |
| 8.9 nM | O=S(=O)(Cc1ccccc1)NC[C@H]1CC[C@H](Nc2nc3c(s2)CCSc2ccccc2-3)CC1 [Example 153, N-{[4-(4,5-Dihydrobenzo[2,3]thiepino[4,5-d][1,3]thiazol-2-ylamino)cyclohexyl]methyl}phenyl-methanesulfonamide] |  |
| 69 nM | N#Cc1ccccc1S(=O)(=O)NC[C@H]1CC[C@H](Nc2nc3c(s2)CCSc2ccccc2-3)CC1 [Example 154, N1-{[4-(4,5-Dihydrobenzo[2,3]thiepino[4,5-d][1,3]thiazol-2-ylamino)cyclohexyl]methyl}-2-cyano-1-benzenesulfonamide] |  |
| 9.1 nM | O=S(=O)(NC[C@H]1CC[C@H](Nc2nc3c(s2)CCSc2ccccc2-3)CC1)c1ccc(F)cc1 [Example 155, N1-{[4-(4,5-Dihydrobenzo[2,3]thiepino[4,5-d][1,3]thiazol-2-ylamino)cyclohexyl]methyl}-4-fluoro-1-benzenesulfonamide] |  |
| 6.6 nM | Cc1ccc(S(=O)(=O)NC[C@H]2CC[C@H](Nc3nc4c(s3)CCSc3ccccc3-4)CC2)cc1 [Example 156, N1-{[4-(4,5-Dihydrobenzo[2,3]thiepino[4,5-d][1,3]thiazol-2-ylamino)cyclohexyl]methyl}-4-methyl-1-benzenesulfonamide] |  |
| 12.3 nM | COCCN(C=O)[C@H]1CC[C@H](CNc2nc3c(s2)CCSc2ccccc2-3)CC1 [Example 163, trans-N-4-[(4,5-dihydrobenzo[2,3]thiepino[4,5-d][1,3]thiazol-2-ylamino)methyl]cyclohexyl-N-(2-methoxyethyl)formamide] |  |
| 13 nM | COCCN(C=O)[C@H]1CC[C@H](CNc2nc3c(s2)CCSc2ccc(F)cc2-3)CC1 [Example 164, trans-N-(4-[(9-Fluoro-4,5-dihydrobenzo[2,3]thiepino-[4,5-d][1,3]thiazol-2-yl)amino]methylcyclohexyl)-N-(2-methoxyethyl)formamide] |  |
| 4.8 nM | CC(C)N(C=O)[C@H]1CC[C@H](CNc2nc3c(s2)CCSc2ccccc2-3)CC1 [Example 165, trans-N-4-[(4,5-Dihydrobenzo[2,3]thiepino[4,5-d][1,3]thiazol-2-ylamino)methyl]cyclohexyl-N-isopropylformamide] |  |
| 6 nM | CC(C)N(C=O)[C@H]1CC[C@H](CNc2nc3c(s2)CCSc2ccc(F)cc2-3)CC1 [Example 166, N-(4-[(9-Fluoro-4,5-dihydrobenzo[2,3]thiepino[4,5-d][1,3]thiazol-2-yl)amino]methylcyclohexyl)-N-isopropylformamide] |  |
